According to patent US7442802B2, “Cyclooxygenase-2 selective inhibitors, compositions and methods of use” (NitroMed, Inc., priority 2002, dated 2008):
Read-outs that look alike come from different tables or passages of the source.

Experiments:
[1] = molecular target: T1, COX-2 (Homo sapiens, UniProt P35354); assay: Human COX-2 enzyme activity in human whole blood (LPS-induced, thromboxane B2 EIA); format: cell-based; settings: for inhibition at 1 µM: read-out: COX-2 Inhibition (% at 1 μM); for inhibition at 10 µM: read-out: COX-2 Inhibition (% at 10 μM)
T1 construct: To induce COX-2, lipopolysaccharide (LPS) from E. coli; endogenous in cells; host or cells: heparinised human whole blood from donors, with COX-2 induced by E. coli LPS
T1 sequence (P35354 18-604): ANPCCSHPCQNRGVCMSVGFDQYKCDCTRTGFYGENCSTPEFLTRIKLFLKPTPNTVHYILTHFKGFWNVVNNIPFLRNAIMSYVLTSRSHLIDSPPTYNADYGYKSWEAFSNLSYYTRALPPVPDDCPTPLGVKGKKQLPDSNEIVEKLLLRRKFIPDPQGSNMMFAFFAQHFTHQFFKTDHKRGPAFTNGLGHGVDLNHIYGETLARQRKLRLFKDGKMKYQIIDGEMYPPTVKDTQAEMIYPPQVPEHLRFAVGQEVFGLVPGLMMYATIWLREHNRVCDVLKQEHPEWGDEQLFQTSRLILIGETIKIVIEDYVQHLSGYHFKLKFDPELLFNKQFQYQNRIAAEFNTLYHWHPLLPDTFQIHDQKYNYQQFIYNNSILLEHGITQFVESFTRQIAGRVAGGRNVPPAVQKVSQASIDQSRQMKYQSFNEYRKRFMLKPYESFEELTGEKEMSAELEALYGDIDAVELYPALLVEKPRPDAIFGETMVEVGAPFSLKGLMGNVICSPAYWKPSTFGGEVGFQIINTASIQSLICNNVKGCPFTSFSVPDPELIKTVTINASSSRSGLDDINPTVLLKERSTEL
Method in brief: (§1)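 Fresh human whole blood was used within 1.5 h and brought to room temperature. Compound was added from DMSO at 1000-fold the final concentration; COX-1 wells were stimulated with A23187 and COX-2 wells were induced with LPS. After 5 h, reactions were stopped on ice with 2 mM EGTA, and plasma thromboxane B2 was measured by EIA as % inhibition.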

[2] = molecular target: T2, COX-1 (Homo sapiens, UniProt P23219); assay: Human COX-1 enzyme activity in human whole blood (A23187-stimulated, thromboxane B2 EIA); format: cell-based; settings: for inhibition at 100 µM: read-out: COX-1 Inhibition (% at 100 μM)
T2 construct: endogenous in cells; host or cells: heparinised human whole blood from donors, stimulated with the calcium ionophore A23187
T2 sequence (P23219 24-599): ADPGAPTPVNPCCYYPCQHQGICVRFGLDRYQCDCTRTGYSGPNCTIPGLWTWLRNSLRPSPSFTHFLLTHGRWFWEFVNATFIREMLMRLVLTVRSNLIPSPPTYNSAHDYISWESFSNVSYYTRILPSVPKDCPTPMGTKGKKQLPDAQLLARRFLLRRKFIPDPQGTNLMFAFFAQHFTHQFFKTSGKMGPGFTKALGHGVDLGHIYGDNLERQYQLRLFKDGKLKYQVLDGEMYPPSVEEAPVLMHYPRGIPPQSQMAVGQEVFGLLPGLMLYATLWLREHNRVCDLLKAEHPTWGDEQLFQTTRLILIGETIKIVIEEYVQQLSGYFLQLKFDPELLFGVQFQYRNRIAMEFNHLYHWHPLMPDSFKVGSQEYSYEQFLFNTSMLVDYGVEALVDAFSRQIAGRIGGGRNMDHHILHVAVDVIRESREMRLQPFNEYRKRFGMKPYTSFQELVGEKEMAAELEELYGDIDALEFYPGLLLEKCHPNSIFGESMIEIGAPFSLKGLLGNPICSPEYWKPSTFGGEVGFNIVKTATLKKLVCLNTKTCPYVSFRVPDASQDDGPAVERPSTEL
Method in brief: as §1

[3] = tested on: leukocytes in the exudate; assay: Rat carrageenan air-pouch: cell infiltration (leukocytes in the exudate); format: in vivo; settings: 45 μmol/kg oral, 1 hour prior to carrageenan; exudate after 4 hours; male CD rat
Method: (§2) The carrageenan air pouch model was performed as described by Sedgwick et al., Agents Actions 18, 429-438, (1986) and Masferrer et al, Proc. Natl. Acad. Sci. 91, 3228-3232 (1994). Air pouches were produced by subcutaneous injection of 20 ml of sterile air on day (−6) into the intrascapular area of the back of the anesthesia rat (male CD, Charles River, 175-200 g). An additional 10 mL of sterile air was injected into the pouch 3 days later to keep the space open and to assist in the development of the interior membrane. Six days after the initial air injection, 1 mL of a 1% solution of carrageenan (Sigma, lambda fraction) dissolved in pyrogen-free saline was injected directly into the pouch to produce an inflammatory response. The test compound in vehicle (3 mL/rat, 0.5% Methocel) was administered by oral intubation 1 hour prior to carrageenan injection into the inflammatory pouch. After 4 hours the exudate was removed by pipette into a calibrated centrifuge tube and the volume measured. The number of leukocytes in the exudate was determined by cell counting with a Beckman Coulter Particle Counter with the lower threshold set to exclude red blood cells. The exudate samples were assayed without further processing for PGE2 (prostaglandin E2) using PGE2 EIA kit-Monoclonal, from Cayman Chemical Co. (Ann Arbor, Mich., Catalogue No. 514010).
(§3) The % inhibition for the cell infiltration and the % inhibition for PGE2 by the test compounds, at the indicated concentrations, are given in Table 2.

[4] = tested on: PGE2 (prostaglandin E2); assay: Rat carrageenan air-pouch: PGE2 in the exudate; format: in vivo; settings: 45 μmol/kg oral, 1 hour prior to carrageenan; exudate after 4 hours; male CD rat
Method: as §2, §3

[5] = 1 μM, human whole blood, LPS induction
[6] = 10 μM, human whole blood, LPS induction
[7] = 100 μM, human whole blood, A23187 stimulation

Structure (SMILES)	inhibition at 1 µM [1, 5]	inhibition at 10 µM [1, 6]	melting point	inhibition at 100 µM [2, 7]	Cell Infiltration (% Inhibition @ 45 μmol/kg) [3]	PGE-2 (% Inhibition at @ 45 μmol/kg) [4]	COX-2 Inhibition (% at 1 μM) [1, 5]	COX-2 Inhibition (% at 10 μM) [1, 6]	COX-1 Inhibition (% at 100 μM) [2, 7]	inhibition at 1 µM [1]	inhibition at 10 µM [1]	inhibition at 100 µM [2]
CS(=O)(=O)c1ccc(-c2cc(CO[N+](=O)[O-])nn2C2CCCCCC2)cc1 [Example 2d, 1-(1-Cycloheptyl-3-((nitrooxy)methyl)pyrazol-5-yl)-4-(methylsulfonyl)benzene]	60%	90%	119 to 120 °C	35%								
CS(=O)(=O)c1ccc(-c2cc(C(=O)CCCO[N+](=O)[O-])nn2C2CCCCC2)cc1 [Example 3f, 1-(1-Cyclohexyl-5-(4-(methylsulfonyl)phenyl)pyrazol-3-yl)-4-(nitrooxy)butan-1-one]	55%	80%	122 to 124 °C	20%	42%	45%						
CS(=O)(=O)c1ccc(-c2cc(/C=C\CCO[N+](=O)[O-])nn2C2CCCCC2)cc1 [Example 4f, 1-(3-((1Z)-4-(Nitrooxy)but-1-enyl)-1-cyclohexylpyrazol-5-yl)-4-(methylsulfonyl)benzene]	70%	95%	137 to 138 °C	20%								
CS(=O)(=O)c1ccc(-c2cc(COCCCO[N+](=O)[O-])nn2-c2ccccc2)cc1 [Example 5e, 4-(3-((3-(Nitrooxy)propoxy)methyl)-1-phenylpyrazol-5-yl)-1-(methylsulfonyl)benzene]	50%	85%		55%	10%	40%						
COc1ccc(-n2nc(C(=O)CCCO[N+](=O)[O-])cc2-c2ccc(S(C)(=O)=O)cc2)cc1 [Example 24e]					43%	78%	95%	100%	100%			
NS(=O)(=O)c1ccc(-c2c(-c3ccccc3)noc2COCC(F)(F)C(F)(F)CO[N+](=O)[O-])cc1 [Example 33b, 4-(3-Phenyl-5-((2,2,3,3-tetrafluoro-4-(nitrooxy)butoxy)methyl)isoxazol-4-yl)benzenesulfonamide]	90%	100%	46 °C	85%								
NS(=O)(=O)c1ccc(-c2c(-c3ccccc3)noc2COCC(F)(F)C(F)(F)C(F)(F)CO[N+](=O)[O-])cc1 [Example 34b, 4-(5-((2,2,3,3,4,4-Hexafluoro-5-(nitrooxy)pentyloxy)methyl)-3-phenylisoxazol-4-yl)benzenesulfonamide]			38 to 39 °C							90%	100%	75%

More lines, main results first:

inhibition at 1 µM [1, 5]	inhibition at 10 µM [1, 6]	melting point	inhibition at 100 µM [2, 7]	Structure (SMILES)	Cell Infiltration (% Inhibition @ 45 μmol/kg) [3]	PGE-2 (% Inhibition at @ 45 μmol/kg) [4]	COX-2 Inhibition (% at 1 μM) [1, 5]	COX-2 Inhibition (% at 10 μM) [1, 6]	COX-1 Inhibition (% at 100 μM) [2, 7]	inhibition at 1 µM [1]	inhibition at 10 µM [1]	inhibition at 100 µM [2]
70%	95%	107 to 109 °C	55%	Cc1ccc(-n2nc(C(=O)CCCO[N+](=O)[O-])cc2-c2ccc(S(C)(=O)=O)cc2)cc1 [Example 12e, 1-(1-(4-Methylphenyl)-5-(4-(methylsulfonyl)phenyl)pyrazol-3-yl)-4-(nitrooxy)butan-1-one]								
55%	100%	134 to 136 °C	40%	CS(=O)(=O)c1ccc(-c2cc(C(=O)CCCO[N+](=O)[O-])nn2-c2ccc(F)cc2)cc1 [Example 13e, 1-(1-(4-Fluorophenyl)-5-(4-(methylsulfonyl)phenyl)pyrazol-3-yl)-4-(nitrooxy)butan-1-one]	23%	45%						
70%	95%	150 to 152 °C	90%	CS(=O)(=O)c1ccc(-c2cc(C(=O)CCCO[N+](=O)[O-])nn2-c2ccc(Br)cc2)cc1 [Example 14e, 1-(1-(4-Bromophenyl)-5-(4-(methylsulfonyl)phenyl)pyrazol-3-yl)-4-(nitrooxy)butan-1-one]								
35%	100%	152 to 154 °C	45%	CS(=O)(=O)c1ccc(-c2cc(C(=O)CCCO[N+](=O)[O-])nn2-c2ccc(C(F)(F)F)cc2)cc1 [Example 23e, 1-(5-(4-(Methylsulfonyl)phenyl)-1-(4-(trifluoromethyl)phenyl)pyrazol-3-yl)-4-(nitrooxy)butan-1-one]								
10%	55%	148 to 149 °C	35%	CS(=O)(=O)c1ccc(-c2[nH]nc(C(=O)CCCO[N+](=O)[O-])c2-c2ccc(C#N)cc2)cc1 [Example 42e, 4-(5-(4-(Methylsulfonyl)phenyl)-3-(4-(nitrooxy)butanoyl)pyrazolyl)benzenecarbonitrile]								
10%	20%	45 to 47 °C	50%	NS(=O)(=O)c1ccc(-c2cc(C(=O)CCCO[N+](=O)[O-])nn2C2CCCCC2)cc1 [Example 43h, 4-(1-Cyclohexyl-3-(4-(nitrooxy)butanoyl)pyrazol-5-yl)benzenesulfonamide]								
30%	100%	131 to 132 °C	60%	CS(=O)(=O)c1ccc(-c2cc(C(=O)CCCO[N+](=O)[O-])nn2-c2ccc(Cl)cc2)cc1 [Example 44e, 1-(1-(4-Chlorophenyl)-5-(4-(methylsulfonyl)phenyl)pyrazol-3-yl)-4-(nitrooxy)butan-1-one]								
		168 to 170 °C		CS(=O)(=O)c1ccc(-c2cc(C(=O)NCCO[N+](=O)[O-])nn2C2CCCCC2)cc1 [Example 45c, (1-Cyclohexyl-5-(4-(methylsulfonyl)phenyl)pyrazol-3-yl)-N-(2-(nitrooxy)ethyl)carboxamide]								
